Data from PubChem BioAssay (NCI).
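Five compound concentrations were applied to cells in 96-well plates for 48 hours; endpoints were derived by simple linear interpolation of the resulting dose-response curve. Here, GI50 denotes the concentration required for 50% inhibition of growth. TGI marks complete inhibition of growth.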

Columns and labels:
Test in all cases: DTP human tumour cell line panel, 48 h
SNB-19 CNS = system: SNB-19 CNS
SK-OV-3 ovarian = system: SK-OV-3 ovarian
COLO 205 colon = system: COLO 205 colon
BT-549 breast = system: BT-549 breast
SF-539 CNS = system: SF-539 CNS
MALME-3M melanoma = system: MALME-3M melanoma
HCT-15 colon = system: HCT-15 colon
SK-MEL-28 melanoma = system: SK-MEL-28 melanoma
NCI/ADR-RES ovarian = system: NCI/ADR-RES ovarian
NCI-H23 lung = system: NCI-H23 lung
OVCAR-4 ovarian = system: OVCAR-4 ovarian
UACC-257 melanoma = system: UACC-257 melanoma
HCC-2998 colon = system: HCC-2998 colon
SNB-75 CNS = system: SNB-75 CNS
KM12 colon = system: KM12 colon
NCI-H460 lung = system: NCI-H460 lung
U251 CNS = system: U251 CNS
A549 NSCLC = system: A549 NSCLC
MCF7 breast = system: MCF7 breast
SW-620 colon = system: SW-620 colon
SF-295 CNS = system: SF-295 CNS
HL-60(TB) leukemia = system: HL-60(TB) leukemia
HOP-62 NSCLC = system: HOP-62 NSCLC
DU-145 prostate = system: DU-145 prostate
SK-MEL-5 melanoma = system: SK-MEL-5 melanoma
OVCAR-5 ovarian = system: OVCAR-5 ovarian
786-0 renal = system: 786-0 renal
PC-3 prostate = system: PC-3 prostate
NCI-H226 lung = system: NCI-H226 lung
RPMI-8226 leukemia = system: RPMI-8226 leukemia
CCRF-CEM leukemia = system: CCRF-CEM leukemia
SN12C renal = system: SN12C renal
TK-10 renal = system: TK-10 renal
SR leukemia = system: SR leukemia
MDA-MB-231 breast = system: MDA-MB-231 breast
HT29 colon = system: HT29 colon
LOX IMVI melanoma = system: LOX IMVI melanoma
OVCAR-3 ovarian = system: OVCAR-3 ovarian
MOLT-4 leukemia = system: MOLT-4 leukemia
HOP-92 NSCLC = system: HOP-92 NSCLC
A498 renal = system: A498 renal
K-562 leukemia = system: K-562 leukemia
T-47D breast = system: T-47D breast
SK-MEL-2 melanoma = system: SK-MEL-2 melanoma
CAKI-1 renal = system: CAKI-1 renal
HCT-116 colon = system: HCT-116 colon
EKVX NSCLC = system: EKVX NSCLC
SF-268 CNS = system: SF-268 CNS
OVCAR-8 ovarian = system: OVCAR-8 ovarian
HS 578T breast = system: HS 578T breast
UACC-62 melanoma = system: UACC-62 melanoma
RXF 393 renal = system: RXF 393 renal
ACHN renal = system: ACHN renal
NCI-H522 lung = system: NCI-H522 lung
M14 melanoma = system: M14 melanoma
UO-31 renal = system: UO-31 renal
MDA-MB-435 = system: MDA-MB-435
IGROV1 ovarian = system: IGROV1 ovarian

In the case of `COc1ccc(-c2ccc(=O)oc2C#Cc2cc(OC)c(OC)c(OC)c2)cc1O`, the GI50 (SNB-19 CNS) was 612 nM, the TGI (SNB-19 CNS) was > 100000 nM and the GI50 (SK-OV-3 ovarian) was 318 nM. The TGI (SK-OV-3 ovarian) was 5650 nM, the GI50 (COLO 205 colon) was 4050 nM and the TGI (COLO 205 colon) was > 40400 nM. It also gave a GI50 (BT-549 breast) of 275 nM, a TGI (BT-549 breast) of 99200 nM and a GI50 (SF-539 CNS) of 254 nM. The TGI (SF-539 CNS) was 1160 nM, the GI50 (MALME-3M melanoma) was 2660 nM and the TGI (MALME-3M melanoma) was > 92600 nM. For the same molecule, the GI50 (HCT-15 colon) was 324 nM, the TGI (HCT-15 colon) was > 100000 nM and the GI50 (SK-MEL-28 melanoma) was 3250 nM. For the same molecule, the TGI (SK-MEL-28 melanoma) was > 100000 nM, the GI50 (NCI/ADR-RES ovarian) was 262 nM and the TGI (NCI/ADR-RES ovarian) was > 43800 nM. The GI50 (NCI-H23 lung) was 1170 nM, the TGI (NCI-H23 lung) was > 100000 nM and the GI50 (OVCAR-4 ovarian) was 1300 nM. For the same molecule, the TGI (OVCAR-4 ovarian) was > 100000 nM, the GI50 (UACC-257 melanoma) was 857 nM and the TGI (UACC-257 melanoma) was > 37300 nM. For the same molecule, the GI50 (HCC-2998 colon) was 265 nM, the TGI (HCC-2998 colon) was > 100000 nM and the GI50 (SNB-75 CNS) was 167 nM. The TGI (SNB-75 CNS) was 2920 nM, the GI50 (KM12 colon) was 759 nM and the TGI (KM12 colon) was > 100000 nM. It also gave a GI50 (NCI-H460 lung) of 287 nM, a TGI (NCI-H460 lung) of 4590 nM and a GI50 (U251 CNS) of 358 nM. The TGI (U251 CNS) was 4580 nM, the GI50 (A549 NSCLC) was 563 nM and the TGI (A549 NSCLC) was 21900 nM. For the same molecule, the GI50 (MCF7 breast) was 120 nM, the TGI (MCF7 breast) was > 100000 nM and the GI50 (SW-620 colon) was 150 nM. The TGI (SW-620 colon) was > 100000 nM, the GI50 (SF-295 CNS) was 495 nM and the TGI (SF-295 CNS) was > 100000 nM. For the same molecule, the GI50 (HL-60(TB) leukemia) was 316 nM, the TGI (HL-60(TB) leukemia) was > 100000 nM and the GI50 (HOP-62 NSCLC) was 1650 nM. The TGI (HOP-62 NSCLC) was > 100000 nM, the GI50 (DU-145 prostate) was 248 nM and the TGI (DU-145 prostate) was 1540 nM. It also gave a GI50 (SK-MEL-5 melanoma) of 183 nM, a TGI (SK-MEL-5 melanoma) of 1160 nM and a GI50 (OVCAR-5 ovarian) of 2490 nM. The TGI (OVCAR-5 ovarian) was 33900 nM, the GI50 (786-0 renal) was 1180 nM and the TGI (786-0 renal) was > 100000 nM. The GI50 (PC-3 prostate) was 621 nM, the TGI (PC-3 prostate) was > 100000 nM and the GI50 (NCI-H226 lung) was 1420 nM. The TGI (NCI-H226 lung) was > 100000 nM, the GI50 (RPMI-8226 leukemia) was 230 nM and the GI50 (CCRF-CEM leukemia) was 331 nM. The TGI (CCRF-CEM leukemia) was > 100000 nM, the GI50 (SN12C renal) was 665 nM and the TGI (SN12C renal) was > 100000 nM. For the same molecule, the GI50 (TK-10 renal) was 6880 nM, the TGI (TK-10 renal) was > 100000 nM and the GI50 (SR leukemia) was 70.8 nM. The TGI (SR leukemia) was > 100000 nM, the GI50 (MDA-MB-231 breast) was 905 nM and the TGI (MDA-MB-231 breast) was 10100 nM. The GI50 (HT29 colon) was 1250 nM, the TGI (HT29 colon) was 12300 nM and the GI50 (LOX IMVI melanoma) was 399 nM. The TGI (LOX IMVI melanoma) was > 100000 nM, the GI50 (OVCAR-3 ovarian) was 113 nM and the TGI (OVCAR-3 ovarian) was 612 nM. For the same molecule, the GI50 (MOLT-4 leukemia) was 952 nM, the TGI (MOLT-4 leukemia) was > 100000 nM and the GI50 (HOP-92 NSCLC) was 999 nM. The TGI (HOP-92 NSCLC) was 9870 nM, the GI50 (A498 renal) was 2360 nM and the TGI (A498 renal) was 24900 nM. For the same molecule, the GI50 (K-562 leukemia) was 129 nM, the TGI (K-562 leukemia) was > 100000 nM and the GI50 (T-47D breast) was 6400 nM. For the same molecule, the TGI (T-47D breast) was > 100000 nM, the GI50 (SK-MEL-2 melanoma) was 1310 nM and the TGI (SK-MEL-2 melanoma) was > 22100 nM. For the same molecule, the GI50 (CAKI-1 renal) was 621 nM, the TGI (CAKI-1 renal) was > 100000 nM and the GI50 (HCT-116 colon) was 249 nM. For the same molecule, the TGI (HCT-116 colon) was > 91900 nM, the GI50 (EKVX NSCLC) was 1380 nM and the TGI (EKVX NSCLC) was > 100000 nM. The GI50 (SF-268 CNS) was 558 nM, the TGI (SF-268 CNS) was > 100000 nM and the GI50 (OVCAR-8 ovarian) was 775 nM. For the same molecule, the TGI (OVCAR-8 ovarian) was > 100000 nM, the GI50 (HS 578T breast) was 696 nM and the TGI (HS 578T breast) was > 100000 nM. The GI50 (UACC-62 melanoma) was 350 nM, the TGI (UACC-62 melanoma) was > 100000 nM and the GI50 (RXF 393 renal) was 81.3 nM. For the same molecule, the TGI (RXF 393 renal) was 2390 nM, the GI50 (ACHN renal) was 628 nM and the TGI (ACHN renal) was > 62100 nM. The GI50 (NCI-H522 lung) was 172 nM, the TGI (NCI-H522 lung) was 852 nM and the GI50 (M14 melanoma) was 521 nM. The TGI (M14 melanoma) was > 100000 nM and the GI50 (UO-31 renal) was 585 nM.

In the case of `O=C(NCP(=O)(Oc1ccccc1)Oc1ccccc1)OCc1ccccc1`, the TGI (SNB-19 CNS) was > 100000 nM, the TGI (SK-OV-3 ovarian) was > 100000 nM and the TGI (COLO 205 colon) was > 100000 nM. For the same molecule, the TGI (BT-549 breast) was > 100000 nM, the TGI (MALME-3M melanoma) was > 100000 nM and the TGI (HCT-15 colon) was > 100000 nM. The TGI (SK-MEL-28 melanoma) was > 100000 nM, the TGI (NCI/ADR-RES ovarian) was > 100000 nM and the TGI (NCI-H23 lung) was > 100000 nM. For the same molecule, the TGI (OVCAR-4 ovarian) was > 100000 nM, the TGI (UACC-257 melanoma) was > 100000 nM and the TGI (SNB-75 CNS) was > 100000 nM. For the same molecule, the TGI (KM12 colon) was > 100000 nM, the TGI (NCI-H460 lung) was > 100000 nM and the TGI (U251 CNS) was > 100000 nM. For the same molecule, the TGI (A549 NSCLC) was > 100000 nM, the TGI (MCF7 breast) was > 100000 nM and the TGI (SW-620 colon) was > 100000 nM. For the same molecule, the TGI (SF-295 CNS) was > 100000 nM, the TGI (HL-60(TB) leukemia) was > 100000 nM and the TGI (HOP-62 NSCLC) was > 100000 nM. The TGI (SK-MEL-5 melanoma) was > 100000 nM, the TGI (OVCAR-5 ovarian) was > 100000 nM and the TGI (786-0 renal) was > 100000 nM. For the same molecule, the TGI (PC-3 prostate) was > 100000 nM, the TGI (NCI-H226 lung) was > 100000 nM and the TGI (MDA-MB-435) was > 100000 nM. The TGI (RPMI-8226 leukemia) was > 100000 nM, the TGI (CCRF-CEM leukemia) was > 100000 nM and the TGI (SN12C renal) was > 100000 nM. For the same molecule, the TGI (TK-10 renal) was > 100000 nM, the TGI (SR leukemia) was > 100000 nM and the TGI (HT29 colon) was > 100000 nM. For the same molecule, the TGI (LOX IMVI melanoma) was > 100000 nM, the TGI (OVCAR-3 ovarian) was > 100000 nM and the TGI (MOLT-4 leukemia) was > 100000 nM. The TGI (HOP-92 NSCLC) was > 100000 nM, the TGI (K-562 leukemia) was > 100000 nM and the TGI (T-47D breast) was > 100000 nM. The TGI (SK-MEL-2 melanoma) was > 100000 nM, the TGI (CAKI-1 renal) was > 100000 nM and the TGI (EKVX NSCLC) was > 100000 nM. The TGI (SF-268 CNS) was > 100000 nM, the TGI (IGROV1 ovarian) was > 100000 nM and the TGI (OVCAR-8 ovarian) was > 100000 nM. The TGI (HS 578T breast) was > 100000 nM, the TGI (UACC-62 melanoma) was > 100000 nM and the TGI (ACHN renal) was > 100000 nM. The TGI (NCI-H522 lung) was > 100000 nM, the TGI (M14 melanoma) was > 100000 nM and the TGI (UO-31 renal) was > 100000 nM.
